In patent US7402606B2, “Derivatives of 1-(oxoaminoacetyl) pentylcarbamate as cathepsin K inhibitors for the treatment of bone loss” (SmithKline Beecham Corporation, priority 2002, dated 2008):

target: T1, human cathepsin K (Homo sapiens, UniProt P43235); assay: Cathepsin K inhibition assay, human recombinant enzyme, fluorogenic substrate Cbz-Phe-Arg-AMC; assay type: biochemical; settings: Table 1, human cathepsin K; read-out: h Cat K IC50
T1 construct: The proform of cathepsin K was converted to mature cathepsin K by brief exposure to pH 4; made in house; host or cells: baculovirus; Trichoplusia ni High Five cells (virus raised in Sf-9)
T1 sequence (P43235 115-329): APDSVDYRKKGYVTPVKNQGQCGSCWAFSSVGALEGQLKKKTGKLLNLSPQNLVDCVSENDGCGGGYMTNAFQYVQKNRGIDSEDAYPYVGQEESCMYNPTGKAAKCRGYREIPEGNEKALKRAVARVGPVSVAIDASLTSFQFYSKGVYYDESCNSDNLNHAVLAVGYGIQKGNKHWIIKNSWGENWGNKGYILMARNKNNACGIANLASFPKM
Description: All assays for cathepsin K were carried out with human and rat recombinant enzyme. Assays for cathepsins S ? V were also carried out with human recombinant enzyme. Assays for human cathepsins B, H, and L were carried out with enzyme, purchased from Athens Research and Technology, Inc., prepared from human liver tissue. […] A stock substrate solution of Cbz-Phe-Arg-AMC was prepared at a concentration of 50 mM in dimethyl sulfoxide. This substrate was diluted into the assay for a final substrate concentration of 10 μM in the rat cathepsin K, human cathepsin K, and human cathepsin B assays; a final substrate concentration of 5 μM in the human cathepsin L assay; and a final substrate concentration of 2 μM in the human cathepsin V assay.
All assays contained 10% dimethyl sulfoxide. […] All assays were conducted at 30° C. Product fluorescence (excitation at 360 nm; emission at 440 nm, (except cathepsin H which used excitation at 340 nm; emission at 420 nm)) was monitored with a PerSeptive Biosystems Cytofluor II fluorescence plate reader. Product progress curves were generated over 2.3 h monitoring the formation of 7-amino-4-methylcoumarin product (or β-naphthalamide for cathepsin H).
Human and rat Cathepsin K:
Two liters of Spodoptera frugiperda (Sf-9) cells (ATCC) were grown in Grace's Supplemented medium (Life Technologies) supplemented with 2 g/L glucose, 10% fetal bovine serum (HyClone) and 0.1% pluronic F-68 (Life Technologies). […] The cells continued to grow for 72 h post-infection, before the virus was harvested by centrifugation at 1400×g for 30 min.
One and one-half liters of Trichoplusia ni (T. ni) High Five (™) cells [JRH Biosciences, Woodland, Calif. […] The cells were grown for 24 h at 28° C., 50 RPM, and 50% dissolved oxygen. […] Media were separated from cells at a rate of 1 L/min using the Centritech 100 ™ continuous-flow centrifuge (DuPont) operating at 200×g.
Protein Purification: Media (human and rat) were filtered through a Whatman 3 filter, and then loaded onto a 25 mL. Poros HS II (26 mm×47 mm) cation exchange column equilibrated in 25 mM sodium acetate at pH 5.5 (equilibration buffer). The column was washed until the absorbance reached the baseline value, and then the protein was eluted with a linear gradient from 0-2 M sodium chloride in the equilibration buffer. Column fractions were analyzed by SDS-PAGE, N-terminal sequencing, and mass spectrometry. Fractions containing the proform of cathepsin K were pooled and frozen at −80° C. The proform was concentrated in an Amicon Centriprep 10 and fractionated with a Superdex 75 column (26 mm×600 mm, Pharmacia) equilibrated in 400 mM sodium chloride, 25 mM sodium acetate at pH 5.5.
Cathepsin K Activation: The proform of cathepsin K was converted to mature cathepsin K by brief exposure to pH 4 in the presence of 5 mM L-cysteine. Typically, 5 mM L-cysteine was added to 10 mL of approximately 1 mg/mL procathepsin K. One mL of this solution was diluted ten-fold into 450 mM sodium acetate at pH 4.0 containing 5 mM L-cysteine. This solution was reacted at 23° C. for 2 min before neutralization with 2 mL, 1.8 M sodium acetate at pH 6.0. The neutralized sample was added to the remaining 9 mL of procathepsin K. The mixture was incubated at 4° C. for 2-3 days. The activated cathepsin K was chromatographed on a Poros HS II column as described above.
Potential inhibitors were evaluated using the progress curve method. Assays were carried out in the presence of variable concentrations of test compound. Reactions were initiated by addition of buffered solutions of inhibitor and substrate to enzyme. Data analysis was conducted according to one of two procedures depending on the appearance of the progress curves in the presence of inhibitors. […] Ki values were calculated from IC50 values using equation 2 assuming a competitive model.

Row | IC50 | SMILES
1 | 0.1 to 1 µM | CCCC[C@H](NC(=O)O[C@@H]1CN(C(=O)OCC2CCCCO2)CC1(C)C)C(=O)C(=O)N[C@H](C)c1ccccc1 (stereo partly drawn) [Example 48, Tetrahydro-2H-pyran-2-ylmethyl (4S)-3,3-dimethyl-4-[({[(1S)-1-(oxo{[(1R)-1-phenylethyl]amino}acetyl)pentyl]amino}carbonyl)oxy]-1-pyrrolidinecarboxylate]
2 | 0.01 to 0.1 µM | CCCC[C@H](NC(=O)O[C@@H]1CN(C(=O)OCCN2CCCC2=O)CC1(C)C)C(=O)C(=O)N[C@H](C)c1ccccc1 [Example 47, 2-(2-Oxo-1-pyrrolidinyl)ethyl (4S)-3,3-dimethyl-4-[({[(1S)-1-(oxo{[(1R)-1-phenylethyl]amino}acetyl)pentyl]amino}carbonyl)oxy]-1-pyrrolidinecarboxylate]
3 | 0.01 to 0.1 µM | CCCC[C@H](NC(=O)O[C@@H]1CN(C(=O)N2CCCC2)CC1(C)C)C(=O)C(=O)N[C@H](C)c1ccccc1 [Example 74, (3S)-4,4-Dimethyl-1-(1-pyrrolidinylcarbonyl)pyrrolidinyl (1S)-1-(oxo{[(1R)-1-phenylethyl]amino}acetyl)pentylcarbamate]
4 | 0.001 to 0.01 µM | CCCC[C@H](NC(=O)O[C@@H]1CN(C(=O)NCCc2ccccc2)CC1(C)C)C(=O)C(=O)N[C@H](C)c1ccccc1 [Example 65, (3S)-4,4-Dimethyl-1-{[(2-phenylethyl)amino]carbonyl}pyrrolidinyl (1S)-1-(oxo{[(1R)-1-phenylethyl]amino}acetyl)pentylcarbamate]
5 | 0.01 to 0.1 µM | CCCC[C@H](NC(=O)O[C@@H]1CN(C(=O)c2cc(C)on2)CC1(C)C)C(=O)C(=O)N[C@H](C)c1ccccc1 [Example 19, (3S)-4,4-Dimethyl-1-[(5-methyl-3-isoxazolyl)carbonyl]pyrrolidinyl (1S)-1-(oxo {[(1R)-1-phenylethyl]amino}acetyl)pentylcarbamate]
6 | 0.01 to 0.1 µM | CCCC[C@H](NC(=O)O[C@@H]1CN(C(=O)OCc2noc(-c3cccs3)n2)CC1(C)C)C(=O)C(=O)N[C@H](C)c1ccccc1 [Example 55, [5-(2-Thienyl)-1,2,4-oxadiazol-3-yl]methyl (4S)-3,3-dimethyl-4-[({[(1S)-1-(oxo{[(1R)-1-phenylethyl]amino}acetyl)pentyl]amino}carbonyl)oxy]-1-pyrrolidinecarboxylate]
7 | 0.01 to 0.1 µM | CCCC[C@H](NC(=O)O[C@@H]1CN(C(=O)OCc2cc(C)on2)CC1(C)C)C(=O)C(=O)N[C@H](C)c1ccccc1 [Example 52, (5-methyl-3-isoxazolyl)methyl (4S)-3,3-dimethyl-4-[({[(1S)-1-(oxo{[(1R)-1-phenylethyl]amino}acetyl)pentyl]amino}carbonyl)oxy]-1-pyrrolidinecarboxylate]
8 | 0.01 to 0.1 µM | CCCC[C@H](NC(=O)O[C@@H]1CN(C(=O)Cc2ccc(F)cc2)CC1(C)C)C(=O)C(=O)N[C@H](C)c1ccccc1 [Example 39, (3S)-1-[(4-Fluorophenyl)acetyl]-4,4-dimethylpyrrolidinyl (1S)-1-(oxo{[(1R)-1-phenylethyl]amino}acetyl)pentylcarbamate]
9 | 0.01 to 0.1 µM | CCCC[C@H](NC(=O)O[C@@H]1CN(C(=O)NC2CCCCC2)CC1(C)C)C(=O)C(=O)N[C@H](C)c1ccccc1 [Example 68, (3S)-1-[(Cyclohexylamino)carbonyl]-4,4-dimethylpyrrolidinyl (1S)-1-(oxo{[(1R)-1-phenylethyl]amino}acetyl)pentylcarbamate]
10 | 0.01 to 0.1 µM | CCCC[C@H](NC(=O)O[C@@H]1CN(C(=O)O[C@@H]2CCOC2)CC1(C)C)C(=O)C(=O)N[C@H](C)c1ccccc1 [Example 56, (3R)-Tetrahydro-3-furanyl (4S)-3,3-dimethyl-4-[({[(1S)-1-(oxo{[(1R)-1-phenylethyl]amino}acetyl)pentyl]amino}carbonyl)oxy]-1-pyrrolidinecarboxylate]

Second part, the compound before the results:

Row | SMILES | IC50
11 | CCCC[C@H](NC(=O)O[C@@H]1CN(C(=O)c2csc(-c3snnc3C)n2)CC1(C)C)C(=O)C(=O)N[C@H](C)c1ccccc1 [Example 37, (3S)-4,4-Dimethyl-1-{[2-(4-methyl-1,2,3-thiadiazol-5-yl)-1,3-thiazol-4-yl]carbonyl}pyrrolidinyl (1S)-1-(oxo{[(1R)-1-phenylethyl]amino}acetyl)pentylcarbamate] | 0.01 to 0.1 µM
12 | CCCC[C@H](NC(=O)O[C@@H]1CN(C(=O)c2c(-c3ccccc3)noc2C)CC1(C)C)C(=O)C(=O)N[C@H](C)c1ccccc1 [Example 27, (3S)-4,4-Dimethyl-1-[(5-methyl-3-phenyl-4-isoxazolyl)carbonyl]pyrrolidinyl (1S)-1-(oxo{[(1R)-1-phenylethyl]amino}acetyl)pentylcarbamate] | 0.01 to 0.1 µM
13 | CCCC[C@H](NC(=O)O[C@@H]1CN(C(=O)Oc2ccc(-c3ccccc3)cc2)CC1(C)C)C(=O)C(=O)N[C@H](C)c1ccccc1 [Example 57, [1,1′-Biphenyl]-4-yl (4S)-3,3-dimethyl-4-[({[(1S)-1-(oxo{[(1R)-1-phenylethyl]amino}acetyl)pentyl]amino}carbonyl)oxy]-1-pyrrolidinecarboxylate] | 0.001 to 0.01 µM
14 | CCCC[C@H](NC(=O)OC1CN(C(=O)Oc2ccccc2)CC1(C)C)C(=O)C(=O)N[C@H](C)c1ccccc1 (stereo partly drawn) [Example 62, Phenyl 3,3-dimethyl-4-[({[(1S)-1-(oxo{[(1R)-1-phenylethyl]amino}acetyl)pentyl]amino}carbonyl)oxy]-1-pyrrolidinecarboxylate] | 0.01 to 0.1 µM
15 | CCCC[C@H](NC(=O)O[C@@H]1CN(C(=O)c2nn(-c3ccccc3)nc2C)CC1(C)C)C(=O)C(=O)N[C@H](C)c1ccccc1 [Example 15, (3S)-4,4-Dimethyl-1-[(5-methyl-2-phenyl-2H-1,2,3-triazol-4-yl)carbonyl]pyrrolidinyl (1S)-1-(oxo{[(1R)-1-phenylethyl]amino}acetyl)pentylcarbamate] | 0.001 to 0.01 µM
16 | CNC(=O)NCCCC[C@H](NC(=O)O[C@@H]1C(=O)OCC1(C)C)C(=O)C(=O)N[C@H](C)c1ccccc1 [Example 2, (3S)-4,4-dimethyl-2-oxotetrahydro-3-furanyl (1S)-5-{[(methylamino)carbonyl]amino}-1-(oxo{[(1R)-1-phenylethyl]amino}acetyl)pentylcarbamate] | 0.001 to 0.01 µM
17 | CCCC[C@H](NC(=O)O[C@@H]1CN(C(=O)Cc2ccc(-c3ccccc3)cc2)CC1(C)C)C(=O)C(=O)N[C@H](C)c1ccccc1 [Example 30, (3S)-1-([1,1′-Biphenyl]-4-ylacetyl)-4,4-dimethylpyrrolidinyl (1S)-1-(oxo {[(1R)-1-phenylethyl]amino}acetyl)pentylcarbamate] | 0.01 to 0.1 µM
18 | CCCC[C@H](NC(=O)O[C@@H]1CN(c2nc3ccccc3s2)CC1(C)C)C(=O)C(=O)Nc1ccn[nH]1 [Example 81, (3S)-1-(1,3-Benzothiazol-2-yl)-4,4-dimethylpyrrolidinyl (1S)-1-[oxo(1H-pyrazol-5-ylamino)acetyl]pentylcarbamate] | 0.0001 to 0.001 µM
19 | CCCC[C@H](NC(=O)O[C@@H]1CN(C(=O)OCc2c(-c3c(Cl)cccc3Cl)noc2C)CC1(C)C)C(=O)C(=O)N[C@H](C)c1ccccc1 [Example 53, [3-(2,6-Dichlorophenyl)-5-methyl-4-isoxazolyl]methyl (4S)-3,3-dimethyl-4-[({[(1S)-1-(oxo{[(1R)-1-phenylethyl]amino}acetyl)pentyl]amino}carbonyl)oxy]-1-pyrrolidinecarboxylate] | 0.001 to 0.01 µM
